Reference: the supplement of paper PMC10307832

The cell lines below were run with Cc1ccc(Nc2nccc(N(C)c3ccc4c(C)n(C)nc4c3)n2)cc1S(N)(=O)=O [Pazopanib] + O=C(c1cc(Cc2n[nH]c(=O)c3ccccc23)ccc1F)N1CCN(C(=O)C2CC2)CC1 [Olaparib] (partner 8 µM) (assay: relative viability (nuclei count vs DMSO), 5 days (fraction); higher = more cells survive). Conditions: first compound 0.01 µM.
Summary of the method: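 Relative viability was taken as the ratio of nuclei in treated wells to nuclei in vehicle wells. Lung cancer cell lines in 1536-well plates received compounds by pin tool one day after seeding, either one drug alone or a fixed anchor-drug dose plus five library-drug doses (not always all listed) in √10 steps. Nuclei were counted on 4× images after 5 days of treatment, and values are medians of duplicate plates.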

Point of comparison: NCI-H1734, relative viability 0.626. Against it:
- NCI-H2087 — higher, 0.72
- NCI-H1395 — lower, 0.428
- H3255 — lower, 0.583
- COR-L23 — lower, 0.35
- COR-L 105 — higher, 0.699
- IA-LM — higher, 0.719
- LOU-NH91 — higher, 0.925
- ChaGo-K-1 — lower, 0.473
- NCI-H358 — higher, 0.757
- NCI-H3122 — higher, 0.7
- HOP-62 — lower, 0.411
- HCC-44 — higher, 0.991
- A549 — lower, 0.248
- NCI-H522 — lower, 0.587
- BEN — higher, 1.06
- HARA — higher, 0.938
- SW 900 — higher, 0.942
- NCI-H441 — lower, 0.558
- NCI-H2009 — higher, 0.746
- A-427 — higher, 0.729
- NCI-H460 — lower, 0.51
- NCI-H727 — higher, 0.672
- NCI-H520 — lower, 0.38
- NCI-H2405 — higher, 0.824
- SW 1573 — lower, 0.471
- 201T — higher, 0.863
- NCI-H1915 — lower, 0.257
- HCC-827 — higher, 0.675
- LXF-289 — higher, 1.05
- NCI-H23 — lower, 0.315
- NCI-H1299 — higher, 1
- NCI-H650 — lower, 0.404

Same assay, conditions: first compound 0.03162 µM

Point of comparison: NCI-H1650, relative viability 0.838. Against it:
- NCI-H2342 — lower, 0.443
- NCI-H838 — higher, 0.843
- EBC-1 — lower, 0.754
- NCI-H1993 — higher, 1.03
- NCI-H2347 — lower, 0.609
- PC-14 — lower, 0.329
- LCLC-103H — lower, 0.699
- NCI-H596 — lower, 0.661
- NCI-H2126 — higher, 0.908
- EMC-BAC-2 — lower, 0.476
- NCI-H2085 — lower, 0.759
- Calu-6 — lower, 0.559
- HCC-366 — lower, 0.357
- NCI-H1666 — higher, 0.874
- NCI-H647 — lower, 0.714
- LK-2 — lower, 0.673
- NCI-H2087 — lower, 0.7
- NCI-H1395 — lower, 0.44
- H3255 — lower, 0.541
- COR-L23 — lower, 0.332
- COR-L 105 — lower, 0.649
- IA-LM — higher, 0.909
- LOU-NH91 — higher, 0.888
- ChaGo-K-1 — lower, 0.447
- NCI-H358 — lower, 0.662
- NCI-H3122 — lower, 0.572
- HOP-62 — lower, 0.454
- HCC-44 — higher, 0.995
- A549 — lower, 0.301
- NCI-H522 — lower, 0.617
- LU99A — lower, 0.243
- BEN — higher, 1.29
- HARA — lower, 0.778
- SW 900 — higher, 1.07
- HCC-78 — higher, 0.87
- NCI-H441 — lower, 0.519
- LCLC-97TM1 — lower, 0.313
- NCI-H2009 — lower, 0.699
- A-427 — lower, 0.8
- NCI-H460 — lower, 0.413
- NCI-H1734 — lower, 0.627
- NCI-H520 — lower, 0.277
- NCI-H2405 — higher, 0.89
- SW 1573 — lower, 0.511
- NCI-H1793 — lower, 0.8
- 201T — higher, 0.865
- NCI-H1915 — lower, 0.241
- HCC-827 — lower, 0.644
- LXF-289 — higher, 1.06
- NCI-H23 — lower, 0.343
- NCI-H1299 — higher, 0.961
- NCI-H650 — lower, 0.411

Same assay, conditions: first compound 0.1 µM

Point of comparison: HARA, relative viability 0.958. Against it:
- NCI-H2342 — lower, 0.481
- NCI-H838 — lower, 0.776
- NCI-H1650 — lower, 0.723
- EBC-1 — lower, 0.696
- NCI-H1703 — lower, 0.223
- NCI-H1993 — higher, 1.21
- NCI-H2347 — lower, 0.538
- PC-14 — lower, 0.371
- LCLC-103H — lower, 0.769
- NCI-H596 — lower, 0.676
- NCI-H2126 — higher, 0.988
- EMC-BAC-2 — lower, 0.457
- NCI-H2085 — lower, 0.796
- Calu-6 — lower, 0.589
- HCC-366 — lower, 0.396
- NCI-H1666 — lower, 0.74
- NCI-H647 — lower, 0.803
- LK-2 — lower, 0.735
- NCI-H2087 — lower, 0.745
- NCI-H1648 — lower, 0.61
- NCI-H1395 — lower, 0.461
- H3255 — lower, 0.627
- COR-L23 — lower, 0.366
- COR-L 105 — lower, 0.667
- IA-LM — lower, 0.925
- LOU-NH91 — lower, 0.926
- ChaGo-K-1 — lower, 0.413
- NCI-H358 — lower, 0.629
- NCI-H3122 — lower, 0.607
- HOP-62 — lower, 0.518
- HCC-44 — higher, 1.02
- A549 — lower, 0.283
- NCI-H522 — lower, 0.678
- LU99A — lower, 0.313
- BEN — higher, 1.11
- HCC-78 — lower, 0.778
- NCI-H441 — lower, 0.511
- LCLC-97TM1 — lower, 0.534
- NCI-H2009 — lower, 0.686
- A-427 — lower, 0.758
- NCI-H460 — lower, 0.572
- NCI-H727 — lower, 0.595
- NCI-H1734 — lower, 0.578
- NCI-H520 — lower, 0.414
- NCI-H2405 — the same, 0.958
- SW 1573 — lower, 0.52
- NCI-H1793 — higher, 1.03
- 201T — lower, 0.85
- NCI-H1915 — lower, 0.275
- HCC-827 — lower, 0.691
- LXF-289 — higher, 1.1
- NCI-H23 — lower, 0.297
- NCI-H1299 — lower, 0.934
- NCI-H650 — lower, 0.394

Same assay, conditions: first compound 0.3162 µM

Point of comparison: EMC-BAC-2, relative viability 0.43. Against it:
- NCI-H2342 — lower, 0.386
- NCI-H838 — higher, 0.816
- NCI-H1650 — higher, 0.852
- EBC-1 — higher, 0.751
- NCI-H1703 — lower, 0.244
- NCI-H1993 — higher, 1.09
- NCI-H2347 — higher, 0.575
- PC-14 — lower, 0.235
- LCLC-103H — higher, 0.79
- NCI-H596 — higher, 0.749
- NCI-H2126 — higher, 0.946
- NCI-H2085 — higher, 0.704
- Calu-6 — higher, 0.579
- HCC-366 — lower, 0.396
- NCI-H1666 — higher, 0.649
- NCI-H647 — higher, 0.486
- LK-2 — higher, 0.807
- NCI-H2087 — higher, 0.549
- NCI-H1648 — higher, 0.515
- NCI-H1395 — higher, 0.446
- H3255 — higher, 0.564
- COR-L23 — lower, 0.299
- COR-L 105 — higher, 0.584
- IA-LM — higher, 0.774
- LOU-NH91 — higher, 0.96
- ChaGo-K-1 — lower, 0.413
- NCI-H358 — higher, 0.639
- NCI-H3122 — higher, 0.636
- HOP-62 — lower, 0.383
- HCC-44 — higher, 0.995
- A549 — lower, 0.297
- NCI-H522 — higher, 0.707
- LU99A — lower, 0.275
- BEN — higher, 0.943
- HARA — higher, 1.26
- SW 900 — higher, 0.915
- HCC-78 — higher, 0.906
- NCI-H441 — lower, 0.429
- LCLC-97TM1 — lower, 0.293
- NCI-H2009 — higher, 0.677
- A-427 — higher, 0.812
- NCI-H460 — lower, 0.406
- NCI-H727 — higher, 0.612
- NCI-H1734 — higher, 0.598
- NCI-H520 — lower, 0.348
- NCI-H2405 — higher, 0.907
- SW 1573 — higher, 0.531
- NCI-H1793 — higher, 0.906
- 201T — higher, 0.825
- NCI-H1915 — lower, 0.229
- HCC-827 — higher, 0.706
- LXF-289 — higher, 1.05
- NCI-H23 — lower, 0.321
- NCI-H1299 — higher, 0.993
- NCI-H650 — lower, 0.391

Same assay, conditions: first compound 1 µM

Point of comparison: NCI-H838, relative viability 0.82. Against it:
- NCI-H2342 — lower, 0.365
- NCI-H1650 — higher, 0.844
- EBC-1 — lower, 0.752
- NCI-H1703 — lower, 0.194
- NCI-H1993 — higher, 1.15
- NCI-H2347 — lower, 0.558
- PC-14 — lower, 0.319
- LCLC-103H — lower, 0.799
- NCI-H596 — lower, 0.629
- NCI-H2126 — higher, 0.887
- EMC-BAC-2 — lower, 0.43
- NCI-H2085 — lower, 0.713
- Calu-6 — lower, 0.5
- HCC-366 — lower, 0.35
- NCI-H1666 — lower, 0.769
- NCI-H647 — lower, 0.474
- LK-2 — lower, 0.539
- NCI-H2087 — lower, 0.568
- NCI-H1648 — lower, 0.419
- NCI-H1395 — lower, 0.473
- H3255 — lower, 0.564
- COR-L23 — lower, 0.34
- COR-L 105 — lower, 0.745
- IA-LM — lower, 0.658
- LOU-NH91 — higher, 0.931
- ChaGo-K-1 — lower, 0.357
- NCI-H358 — lower, 0.599
- NCI-H3122 — lower, 0.599
- HOP-62 — lower, 0.288
- HCC-44 — higher, 1
- A549 — lower, 0.36
- NCI-H522 — lower, 0.642
- LU99A — lower, 0.267
- BEN — higher, 0.931
- HARA — lower, 0.795
- SW 900 — higher, 0.945
- HCC-78 — higher, 0.995
- NCI-H441 — lower, 0.611
- LCLC-97TM1 — lower, 0.252
- NCI-H2009 — lower, 0.456
- A-427 — lower, 0.791
- NCI-H460 — lower, 0.409
- NCI-H727 — lower, 0.629
- NCI-H1734 — lower, 0.591
- NCI-H520 — lower, 0.285
- NCI-H2405 — higher, 0.983
- SW 1573 — lower, 0.517
- NCI-H1793 — higher, 1.05
- 201T — higher, 0.822
- NCI-H1915 — lower, 0.227
- HCC-827 — lower, 0.673
- LXF-289 — higher, 1.05
- NCI-H23 — lower, 0.36
- NCI-H1299 — higher, 0.865
- NCI-H650 — lower, 0.37
